Experimental data as given in ChEMBL document CHEMBL5223091, “Targeting the Mitotic Kinesin KIF18A in Chromosomally Unstable Cancers: Hit Optimization Toward an In Vivo Chemical Probe” (J Med Chem, 2022).
In brackets after ≈: the same amount, converted by molar mass. Activity calls are given as the source filed them. No cut-off for these calls is given here.

Key:
[1] = Half life in CD-1 mouse at 1 mg/kg, iv and 10 mg/kg, po; assay type: ADME, organism-based; conditions: in vivo
[2] = Passive permeability across apical to basolateral side in dog MDCK-MDR1 cells at 5 uM; assay type: ADME, cell-based, Canis lupus familiaris; conditions: read-out: permeability
[3] = Kinetic solubility of compound in FaSSIF; assay type: ADME; conditions: read-out: Kinetic_solubility
[4] = Volume of distribution at steady state in CD-1 mouse at 1 mg/kg, iv and 10 mg/kg, po; assay type: ADME, organism-based; conditions: in vivo
[5] = AUC (0 to 24 hrs) in CD-1 mouse xenografted with human OVCAR-3 cells at 100 mg/kg, po by LC-MS/MS analysis; assay type: ADME, organism-based; set-up: dose 100 mg/kg, route po; conditions: in vivo
[6] = Plasma concentration in CD-1 mouse xenografted with human OVCAR-3 cells at 100 mg/kg, po measured after 8 hrs; assay type: ADME, organism-based
[7] = Unbound fraction in CD-1 mouse plasma xenografted with human OVCAR-3 cells at 100 mg/kg, po by LC-MS/MS analysis; assay type: ADME, organism-based
[8] = Unbound fraction in plasma (unknown origin) by ultracentrifugation; assay type: ADME, cell-free
[9] = molecular target: Centromere-associated protein E (Homo sapiens, UniProt Q02224); assay: Inhibition of recombinant GST-tagged human CENP-E assessed as inhibition of microtubule-stimulated ATPase activity preincubated for 30 mins followed by ATP addition and further incubated for 15 mins by ADP-Glo reagent based assay
[10] = Unbound fraction in CD-1 mouse plasma xenografted with human OVCAR-3 cells at 100 mg/kg, ip by LC-MS/MS analysis; assay type: ADME, organism-based
[11] = Plasma concentration in CD-1 mouse xenografted with human OVCAR-3 cells at 100 mg/kg, po measured upto 24 hrs by LC-MS/MS analysis; assay type: ADME, organism-based
[12] = Metabolic stability in mouse liver microsomes assessed as intrinsic clearance at 0.5 uM incubated upto 40 mins by LCMS analysis; assay type: ADME, Microsome; conditions: read-out: CLH
[13] = Metabolic stability in human liver microsomes assessed as intrinsic clearance at 0.5 uM incubated upto 40 mins by LCMS analysis; assay type: ADME, Microsome; conditions: read-out: CLH
[14] = Drug uptake in CD-1 mouse xenografted with human OVCAR-3 cells measured in tumor at 100 mg/kg, po measured after 8 hrs; assay type: ADME, organism-based, Neoplasm; conditions: read-out: Drug uptake
[15] = tested on: OVCAR-3; assay: Antimitotic activity in human OVCAR-3 cells xenografted in CD-1 mouse assessed as increase in phospho-histone H3 positive cells in tumor at 100 mg/kg, po measured after 24 hrs; assay type: functional, organism-based
[16] = Cmax in CD-1 mouse at 1 mg/kg, iv and 10 mg/kg, po; assay type: ADME, organism-based; set-up: dose 10 mg/kg, route po; conditions: in vivo
[17] = Oral bioavailability in CD-1 mouse at 10 mg/kg; assay type: ADME, organism-based; conditions: in vivo
[18] = molecular target: T1, Kinesin-like protein KIF18A (Mus musculus, UniProt Q91WD7); assay: Inhibition of recombinant His-tagged mouse KIF18A expressed in Trichoplusia ni insect cells assessed as inhibition of microtubule-stimulated ATPase activity preincubated for 30 mins followed by ATP addition and further incubated for 15 mins by ADP-Glo reagent based assay; set-up: species or system Insect cell
T1 sequence (Q91WD7 whole entry): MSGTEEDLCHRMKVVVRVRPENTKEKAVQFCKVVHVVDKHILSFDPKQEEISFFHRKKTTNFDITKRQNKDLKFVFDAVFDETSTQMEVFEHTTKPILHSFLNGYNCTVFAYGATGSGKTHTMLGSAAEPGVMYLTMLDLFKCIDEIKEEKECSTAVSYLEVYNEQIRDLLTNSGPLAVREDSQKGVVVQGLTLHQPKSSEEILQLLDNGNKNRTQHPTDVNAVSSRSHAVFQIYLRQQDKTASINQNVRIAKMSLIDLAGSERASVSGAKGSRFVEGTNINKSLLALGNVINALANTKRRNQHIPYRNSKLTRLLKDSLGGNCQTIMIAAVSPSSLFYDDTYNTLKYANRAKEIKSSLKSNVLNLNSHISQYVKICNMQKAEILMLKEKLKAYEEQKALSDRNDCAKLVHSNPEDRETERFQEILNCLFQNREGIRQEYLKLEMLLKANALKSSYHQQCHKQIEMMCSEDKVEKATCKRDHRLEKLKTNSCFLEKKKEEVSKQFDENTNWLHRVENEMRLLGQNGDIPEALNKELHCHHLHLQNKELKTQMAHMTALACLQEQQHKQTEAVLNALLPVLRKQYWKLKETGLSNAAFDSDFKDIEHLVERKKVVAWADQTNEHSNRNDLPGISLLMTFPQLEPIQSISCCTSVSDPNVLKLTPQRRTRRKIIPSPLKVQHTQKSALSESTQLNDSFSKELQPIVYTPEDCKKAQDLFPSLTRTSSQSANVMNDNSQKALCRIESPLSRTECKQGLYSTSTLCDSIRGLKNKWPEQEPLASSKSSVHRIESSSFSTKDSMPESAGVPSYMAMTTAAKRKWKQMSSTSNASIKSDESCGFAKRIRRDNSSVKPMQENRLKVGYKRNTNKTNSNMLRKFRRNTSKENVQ

[19] = Plasma concentration in CD-1 mouse at 100 mg/kg, po measured after 24 hrs; assay type: ADME, organism-based
[20] = Cmax in CD-1 mouse xenografted with human OVCAR-3 cells at 100 mg/kg, po by LC-MS/MS analysis; assay type: ADME, organism-based; set-up: dose 100 mg/kg, route po; conditions: in vivo

Centromere-associated protein E, sequence (Q02224 whole entry): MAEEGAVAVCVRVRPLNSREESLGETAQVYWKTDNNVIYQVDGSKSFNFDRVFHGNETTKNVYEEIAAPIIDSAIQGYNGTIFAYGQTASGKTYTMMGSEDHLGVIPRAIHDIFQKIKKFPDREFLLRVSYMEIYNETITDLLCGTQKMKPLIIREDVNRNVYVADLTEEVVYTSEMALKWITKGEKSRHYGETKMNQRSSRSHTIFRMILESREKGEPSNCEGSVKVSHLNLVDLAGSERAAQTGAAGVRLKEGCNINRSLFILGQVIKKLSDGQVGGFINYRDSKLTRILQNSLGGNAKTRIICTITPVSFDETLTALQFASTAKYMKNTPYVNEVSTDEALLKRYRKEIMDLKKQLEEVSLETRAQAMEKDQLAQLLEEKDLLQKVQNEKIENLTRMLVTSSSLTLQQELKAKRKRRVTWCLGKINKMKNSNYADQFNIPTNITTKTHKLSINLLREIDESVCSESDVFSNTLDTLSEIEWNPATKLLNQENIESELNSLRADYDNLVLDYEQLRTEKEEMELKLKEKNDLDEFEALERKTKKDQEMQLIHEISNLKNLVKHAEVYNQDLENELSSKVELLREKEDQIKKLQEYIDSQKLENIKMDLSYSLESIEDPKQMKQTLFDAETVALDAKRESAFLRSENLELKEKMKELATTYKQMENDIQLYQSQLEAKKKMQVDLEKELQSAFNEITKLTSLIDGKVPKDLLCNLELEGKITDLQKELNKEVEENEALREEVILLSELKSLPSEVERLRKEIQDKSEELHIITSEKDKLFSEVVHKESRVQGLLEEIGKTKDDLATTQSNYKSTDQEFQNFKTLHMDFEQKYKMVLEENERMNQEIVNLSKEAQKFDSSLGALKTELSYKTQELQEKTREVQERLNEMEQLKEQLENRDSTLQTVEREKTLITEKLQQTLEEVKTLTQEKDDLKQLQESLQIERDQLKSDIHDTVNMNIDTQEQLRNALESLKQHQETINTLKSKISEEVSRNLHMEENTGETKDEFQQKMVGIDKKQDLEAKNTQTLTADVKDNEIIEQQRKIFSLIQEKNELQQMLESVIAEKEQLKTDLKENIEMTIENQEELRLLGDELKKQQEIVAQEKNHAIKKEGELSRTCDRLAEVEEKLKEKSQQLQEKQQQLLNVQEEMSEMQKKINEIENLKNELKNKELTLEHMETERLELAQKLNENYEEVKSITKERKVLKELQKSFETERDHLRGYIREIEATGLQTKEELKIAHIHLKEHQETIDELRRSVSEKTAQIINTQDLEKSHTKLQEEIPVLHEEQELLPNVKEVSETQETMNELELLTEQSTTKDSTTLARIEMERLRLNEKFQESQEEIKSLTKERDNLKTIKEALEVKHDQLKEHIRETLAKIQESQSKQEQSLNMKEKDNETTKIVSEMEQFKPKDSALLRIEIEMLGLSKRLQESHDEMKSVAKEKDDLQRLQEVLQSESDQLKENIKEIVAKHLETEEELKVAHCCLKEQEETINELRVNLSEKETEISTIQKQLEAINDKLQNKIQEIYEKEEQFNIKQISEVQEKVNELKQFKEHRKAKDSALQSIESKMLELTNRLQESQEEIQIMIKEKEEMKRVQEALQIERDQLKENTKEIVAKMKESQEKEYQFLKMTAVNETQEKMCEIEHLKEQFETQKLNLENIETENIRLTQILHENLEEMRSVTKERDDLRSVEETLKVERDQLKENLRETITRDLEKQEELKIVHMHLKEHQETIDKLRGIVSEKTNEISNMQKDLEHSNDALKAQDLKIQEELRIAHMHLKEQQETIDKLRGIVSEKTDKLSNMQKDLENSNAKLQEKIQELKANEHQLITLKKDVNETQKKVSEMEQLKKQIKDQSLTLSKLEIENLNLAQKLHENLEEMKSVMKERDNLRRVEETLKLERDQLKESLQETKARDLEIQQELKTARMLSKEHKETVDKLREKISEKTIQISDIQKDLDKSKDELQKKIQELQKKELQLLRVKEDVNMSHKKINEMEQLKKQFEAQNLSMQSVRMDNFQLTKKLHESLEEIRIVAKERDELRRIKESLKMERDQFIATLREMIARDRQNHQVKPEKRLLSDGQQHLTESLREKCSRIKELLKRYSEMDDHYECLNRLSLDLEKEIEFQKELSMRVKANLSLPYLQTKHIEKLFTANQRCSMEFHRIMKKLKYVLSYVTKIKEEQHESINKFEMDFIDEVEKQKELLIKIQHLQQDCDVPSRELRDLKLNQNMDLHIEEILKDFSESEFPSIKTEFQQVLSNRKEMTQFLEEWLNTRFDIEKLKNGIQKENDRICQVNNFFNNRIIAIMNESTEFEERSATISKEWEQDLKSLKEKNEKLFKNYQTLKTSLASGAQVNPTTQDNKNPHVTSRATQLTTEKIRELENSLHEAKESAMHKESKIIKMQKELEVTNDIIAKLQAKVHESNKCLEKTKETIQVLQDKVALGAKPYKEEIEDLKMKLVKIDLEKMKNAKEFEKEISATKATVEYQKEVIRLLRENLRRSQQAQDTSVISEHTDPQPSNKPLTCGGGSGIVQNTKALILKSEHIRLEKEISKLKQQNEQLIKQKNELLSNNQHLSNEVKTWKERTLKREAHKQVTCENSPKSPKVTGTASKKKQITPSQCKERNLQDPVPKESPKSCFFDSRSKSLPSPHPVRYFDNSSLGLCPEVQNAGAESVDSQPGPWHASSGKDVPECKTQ

half-life [1]: 1.7 h
Papp A→B at 5 µM [2]: < 0.3 ×10⁻⁶ cm/s
solubility kinetic [3]: 209 µM (≈ 112 µg/mL)
Vdss [4]: 2 L/kg
AUC(0-t) [5]: 25.7 µM·h
concentration at 8 h [6]: 5.7 µM
fraction unbound [7]: 0.022
fraction unbound [8]: 0.022
IC50 [9]: 86 µM
fraction unbound [10]: 0.022
concentration at 24 h [11]: 0.016 µM
microsomal CLint at 0.5 µM [12]: 64 µL/min/mg
microsomal CLint at 0.5 µM [13]: 127 µL/min/mg
concentration at 8 h [14]: 17.5 µM
Cmax [16]: 2.15 µM
bioavailability [17]: 35%
IC50 [18]: 0.077 µM
concentration at 24 h [19]: 0.03 µM
Cmax [20]: 6.1 µM
Compound: CC(C)(C)NS(=O)(=O)c1cccc(NC(=O)c2ncc(NS(C)(=O)=O)nc2N2CCC3(CC2)CC3)n1
Activity [15]: inactive
